Where two headings read alike, the source gives them in different places.
Tests used:
E. coli O-157 [1] = assay: Metal ion or food preservative added to growth medium, viable count; format: cell-based; conditions: food preservative in growth medium
S. aureus 209P = assay: as above; format: cell-based
Description: (§1) To a standard medium for counting viable bacteria described below, each metal ion with varied concentration was added. […] Then, the number of viable bacteria was counted with time in a common procedure.
(§2) Sample bacteria: S. aureus 209P as a representative of Gram-positive bacteria • E. coli 0-157 as a representative of Gram-negative bacteria
(§3) Standard medium for counting viable bacteria: yeast extract 2.5 g, peptone 5 g, glucose 1 g, agar 15 g, pH 7.2

[2] = test system: sample bacteria (S. aureus 209P, E. coli O-157); assay: Death rate over time, food preservative in purified water pH 3.0
[3] = test system: spores of Bacillus species; assay: Spore decay time and decay rate in dried soil, aerobic culture; format: cell-based; conditions: for Spore decay rate, Spores of Bacillus species: 1 g dried soil in 10 ml, aerobic culture
Description: (§4) Sands in a sandbox in a park and riverside soil were collected and mixed. The mixture was dried with heated air at 80 to 90° C. for 6 hours. Then, 1 g of the dried mixture was added into water and immediately filtered with a filter. A part of the filtrate was applied onto a glass slide, and spores were stained in a common procedure. The number of stained spores was counted and the number of spores contained in 1 g of soil was determined. Simultaneously, the spores were aerobically (Bacillus species proliferated) and anaerobically (Clostridium species proliferated) cultured, and each ratio was determined.
(§5) Then, into 10 ml of the sample disinfectant, 1 g of the dried soil was added. Some of the mixture was collected with time, and cultured aerobically and anaerobically. The number of growing colonies was counted to determine the decay rate of the spores.

[4] = test system: viable bacteria in sputum; assay: Sterilization effect on specimen: sputum; conditions: Sputum 2 × 10^9/g
[5] = test system: spores of Clostridium species; assay: Spore decay time and decay rate in dried soil, anaerobic culture; format: cell-based; conditions: for Spore decay rate, Spores of Clostridium species: 1 g dried soil in 10 ml, anaerobic culture
Description: as §4, §5

[6] = test system: pus mainly including antibiotic resistant Pseudomonas aeruginosa (MDRP); conditions: Pus (MDRP) 5 × 10^9/g
[7] = test system: pus mainly including antibiotic resistant MRSA; conditions: Pus (MRSA) 4 × 10^9/g
[8] = test system: intestinal bacteria in feces; assay: Sterilization effect on specimen: feces; conditions: Feces 1.5 × 10^11/g
E. coli O-157 [9] = assay: Metal ion or food preservative added to growth medium, viable count; format: cell-based; conditions: metal ion in growth medium
Description: as §1, §2, §3

[10] = food preservative in growth medium

C/C=C/C=C/C(=O)[O-].[K+] [Potassium sorbate]
(a) Antiproliferative activity, concentration (E. coli O-157 [1]): 30~250 ppm
(b) Bacteriostatic activity, concentration (E. coli O-157 [1]): 250 ppm>
(a) Antiproliferative activity, concentration (S. aureus 209P; [10]): 35~250 ppm
(b) Bacteriostatic activity, concentration (S. aureus 209P; [10]): 200 ppm>
Death rate ([2]; 50 ppm, 5 min): 0
Death rate ([2]; 50 ppm, 10 min): 0
Death rate ([2]; 50 ppm, 15 min): 0
Death rate ([2]; 50 ppm, 30 min): 2
Death rate ([2]; 50 ppm, 60 min): 5
Death rate ([2]; 50 ppm, 90 min): 8
Death rate ([2]; 50 ppm, 120 min): 12
Death rate ([2]; 200 ppm, 5 min): 0
Death rate ([2]; 200 ppm, 10 min): 0
Death rate ([2]; 200 ppm, 15 min): 0
Death rate ([2]; 200 ppm, 30 min): 2
Death rate ([2]; 200 ppm, 60 min): 6
Death rate ([2]; 200 ppm, 90 min): 10
Death rate ([2]; 200 ppm, 120 min): 15
Death rate ([2]; 500 ppm, 5 min): 0
Death rate ([2]; 500 ppm, 10 min): 0
Death rate ([2]; 500 ppm, 15 min): 1
Death rate ([2]; 500 ppm, 30 min): 3
Death rate ([2]; 500 ppm, 60 min): 7
Death rate ([2]; 500 ppm, 90 min): 12
Death rate ([2]; 500 ppm, 120 min): 18

O=C([O-])c1ccccc1.[Na+] [Sodium benzoate]
(a) Antiproliferative activity, concentration (E. coli O-157 [1]): 40~300 ppm
(b) Bacteriostatic activity, concentration (E. coli O-157 [1]): 220 ppm>
(a) Antiproliferative activity, concentration (S. aureus 209P; [10]): 40~300 ppm
(b) Bacteriostatic activity, concentration (S. aureus 209P; [10]): 250 ppm>
Death rate ([2]; 50 ppm, 5 min): 0
Death rate ([2]; 50 ppm, 10 min): 0
Death rate ([2]; 50 ppm, 15 min): 0
Death rate ([2]; 50 ppm, 30 min): 2
Death rate ([2]; 50 ppm, 60 min): 5
Death rate ([2]; 50 ppm, 90 min): 8
Death rate ([2]; 50 ppm, 120 min): 10
Death rate ([2]; 200 ppm, 5 min): 0
Death rate ([2]; 200 ppm, 10 min): 0
Death rate ([2]; 200 ppm, 15 min): 0
Death rate ([2]; 200 ppm, 30 min): 2
Death rate ([2]; 200 ppm, 60 min): 5
Death rate ([2]; 200 ppm, 90 min): 10
Death rate ([2]; 200 ppm, 120 min): 12
Death rate ([2]; 500 ppm, 5 min): 0
Death rate ([2]; 500 ppm, 10 min): 0
Death rate ([2]; 500 ppm, 15 min): 1
Death rate ([2]; 500 ppm, 30 min): 3
Death rate ([2]; 500 ppm, 60 min): 8
Death rate ([2]; 500 ppm, 90 min): 12
Death rate ([2]; 500 ppm, 120 min): 15

OCl [Sodium hypochlorite, sodium hypochlorite]
Spore decay rate, Spores of Bacillus species ([3]; 1 min contact): 0%
Spore decay rate, Spores of Bacillus species ([3]; 5 min contact): 0%
Spore decay rate, Spores of Bacillus species ([3]; 10 min contact): 10%
Spore decay rate, Spores of Bacillus species ([3]; 30 min contact): 30%
Spore decay rate, Spores of Bacillus species ([3]; 60 min contact): 100%
spores decayed ([3]; 60 minutes contact): 100%
Spore decay rate, Spores of Bacillus species ([3]; 120 min contact): 100%
The number of viable bacteria in specimen ([4]; 5 min after addition): 20000 g⁻¹
The number of viable bacteria in specimen ([4]; 15 min after addition): 10000 g⁻¹
The number of viable bacteria in specimen ([4]; 30 min after addition): 10000 g⁻¹
The number of viable bacteria in specimen ([4]; 60 min after addition): 5000 g⁻¹
The number of viable bacteria in specimen ([4]; 60 min after addition, listed as sodium hypochlorite): 5000 g⁻¹
Spore decay rate, Spores of Clostridium species ([5]; 1 min contact): 0%
Spore decay rate, Spores of Clostridium species ([5]; 5 min contact): 5%
Spore decay rate, Spores of Clostridium species ([5]; 10 min contact): 20%
Spore decay rate, Spores of Clostridium species ([5]; 30 min contact): 30%
Spore decay rate, Spores of Clostridium species ([5]; 60 min contact): 100%
spores decayed ([5]; 60 minutes contact): 100%
Spore decay rate, Spores of Clostridium species ([5]; 120 min contact): 100%
The number of viable bacteria in specimen ([6]; 5 min after addition): 2000 g⁻¹
The number of viable bacteria in specimen ([6]; 15 min after addition): 1000 g⁻¹
The number of viable bacteria in specimen ([6]; 30 min after addition): 200 g⁻¹
The number of viable bacteria in specimen ([6]; 60 min after addition): 100 g⁻¹
The number of viable bacteria in specimen ([7]; 5 min after addition): 30000 g⁻¹
The number of viable bacteria in specimen ([7]; 15 min after addition): 500 g⁻¹
The number of viable bacteria in specimen ([7]; 30 min after addition): 100 g⁻¹
The number of viable bacteria in specimen ([7]; 60 min after addition): 0 g⁻¹
The number of viable bacteria in specimen ([8]; 5 min after addition): 1e+08 g⁻¹
The number of viable bacteria in specimen ([8]; 15 min after addition): 8e+06 g⁻¹
The number of viable bacteria in specimen ([8]; 30 min after addition): 8e+06 g⁻¹
The number of viable bacteria in specimen ([8]; 60 min after addition): 1e+07 g⁻¹
The number of viable bacteria in specimen ([8]; 60 min after addition, listed as hypochlorite): 1e+07 g⁻¹

C/C=C/C=C/C(=O)O [Sorbic acid]
(a) Antiproliferative activity, concentration (E. coli O-157 [1]): 20~200 ppm
(b) Bacteriostatic activity, concentration (E. coli O-157 [1]): 200 ppm>
(a) Antiproliferative activity, concentration (S. aureus 209P; [10]): 20~200 ppm
(b) Bacteriostatic activity, concentration (S. aureus 209P; [10]): 150 ppm>
Death rate ([2]; 50 ppm, 5 min): 0
Death rate ([2]; 50 ppm, 10 min): 0
Death rate ([2]; 50 ppm, 15 min): 0
Death rate ([2]; 50 ppm, 30 min): 2
Death rate ([2]; 50 ppm, 60 min): 5
Death rate ([2]; 50 ppm, 90 min): 10
Death rate ([2]; 50 ppm, 120 min): 15
Death rate ([2]; 200 ppm, 5 min): 0
Death rate ([2]; 200 ppm, 10 min): 0
Death rate ([2]; 200 ppm, 15 min): 0
Death rate ([2]; 200 ppm, 30 min): 2
Death rate ([2]; 200 ppm, 60 min): 7
Death rate ([2]; 200 ppm, 90 min): 12
Death rate ([2]; 200 ppm, 120 min): 18
Death rate ([2]; 500 ppm, 5 min): 0
Death rate ([2]; 500 ppm, 10 min): 0
Death rate ([2]; 500 ppm, 15 min): 1
Death rate ([2]; 500 ppm, 30 min): 3
Death rate ([2]; 500 ppm, 60 min): 10
Death rate ([2]; 500 ppm, 90 min): 15
Death rate ([2]; 500 ppm, 120 min): 20

O.O.O.O.O.O.O.O=S(=O)([O-])[O-].[Zn+2] [Zn^2+, ZnSO4•7H2O]
(a) Antiproliferative activity, concentration (S. aureus 209P; metal ion in growth medium): 12~18 ppm
(b) Bacteriostatic activity, concentration (S. aureus 209P; metal ion in growth medium): 16~200 ppm
(c) Bactericidal activity, concentration (S. aureus 209P; metal ion in growth medium): 200 ppm>
Acceleration of growth, concentration (S. aureus 209P; metal ion in growth medium): 10 ppm<
(a) Antiproliferative activity, concentration (E. coli O-157 [9]): 10~15 ppm
(b) Bacteriostatic activity, concentration (E. coli O-157 [9]): 15~250 ppm
(c) Bactericidal activity, concentration (E. coli O-157 [9]): 250 ppm>
Acceleration of growth, concentration (E. coli O-157 [9]): 10 ppm<
